The source of these data is paper PMC7377239, “Cardiovascular Effects of Polychlorinated Biphenyls and Their Major Metabolites” (Environmental Health Perspectives, 2020).

Assay [1] deals with iCell endothelial cells (human iPSC-derived ECs). Nature of the assay: High-content imaging cytotoxicity in iCell endothelial cells, 24 h. The assay is classed as cell-based. As to conditions: Homo sapiens, Endothelial cell, endothelial cells (endo), 24 hr. The method in brief:
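Human iPSC-derived endothelial cells (passages 1–5) were grown to a fibronectin-coated monolayer, then exposed 24 h at 37 °C with 0.5% DMSO vehicle. Staining was Hoechst 33342, MitoTracker Orange and calcein AM, read by high-content imaging. Point of departure came from 4-parameter logistic fits, with a 1-SD vehicle cutoff and 100 µM as the top concentration.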

The test system of the next assay is HUVECs. Nature of the assay: High-content imaging cytotoxicity in HUVECs, 24 h. It is filed as cell-based, human. The settings on record: Homo sapiens, HUVEC, 24 h, HUVEC, 24 hr. In short, it runs like this:
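HUVECs (passages 1–5) grown to monolayer over 3–5 d, then exposed 24 h at 37°C, 5% CO2; stained with Hoechst 33342, MitoTracker Orange and calcein AM and imaged at 10×. Readouts normalized to 0.5% DMSO vehicle, four-parameter logistic fit; POD at one-SD cutoff, 100μM assigned when no response.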

Like-named read-outs stand apart in the source and are kept apart here.

For the molecule `Oc1ccc(-c2ccc(Cl)cc2)cc1` [4'-OH-PCB 3], the minimal effective concentration in assay [1] (cyto, read-out: POD endo.cyto.24hr) is 41.1 µM; in assay [1] (mito, read-out: POD endo.mito.24hr), 41.1 µM; in assay [1] (mitoint, read-out: POD endo.mitoint.24hr) it was 100 µM; in assay [1] (nma, read-out: POD endo.nma.24hr), 100 µM; in assay [1] (tc, read-out: POD endo.tc.24hr), 52 µM; with HUVECs (cyto, read-out: POD huvec.cyto.24hr), 7.01 µM. Further, the minimal effective concentration with HUVECs (mito, read-out: POD huvec.mito.24hr) is 3.9 µM; in the assay with HUVECs (mitoint, read-out: POD huvec.mitoint.24hr) it was 11.2 µM; with HUVECs (nma, read-out: POD huvec.nma.24hr), 6.91 µM; with HUVECs (tc, read-out: POD huvec.tc.24hr), 7.01 µM.
